Measurements reported in ChEMBL document CHEMBL5137134, “Developing the Natural Prenylflavone Artocarpin from Artocarpus hirsutus as a Potential Lead Targeting Pathogenic, Multidrug-Resistant Staphylococcus aureus, Persisters and Biofilms with No Detectable Resistance” (J Nat Prod, 2022).
Converted amounts (≈) assume the structure as drawn. The source made the active and inactive calls. The rule behind the calls is not given here.

What was measured:
Staphylococcus aureus [1] = assay: Synergistic antibacterial activity against Staphylococcus aureus ATCC 29213 assessed as fractional inhibitory concentration incubated for 24 hrs in presence of minocycline by checkerboard method; format: functional
Escherichia coli [2] = assay: Antibacterial activity against Escherichia coli ATCC 25922 assessed as reduction in bacterial growth incubated for 16 to 18 hrs in presence of PMBN by broth microdilution method; format: functional; settings: time 16-18 hrs
Pseudomonas aeruginosa = assay: Antibacterial activity against Pseudomonas aeruginosa ATCC 27853 assessed as reduction in bacterial growth incubated for 16 to 18 hrs by broth microdilution method; format: functional; settings: time 16-18 hrs
Staphylococcus aureus [3] = assay: Bactericidal activity against Staphylococcus aureus ATCC 29213 assessed as reduction in log10 CFU at 2.5 times MIC after 5 mins by time kill assay; format: functional
Staphylococcus aureus [4] = assay: Synergistic antibacterial activity against Staphylococcus aureus ATCC 29213 assessed as reduction in bacterial growth incubated for 24 hrs in presence of linezolid by checkerboard method; format: functional
Staphylococcus aureus [5] = assay: Antibacterial activity against methicillin/tetracycline resistant Staphylococcus aureus NRS 100 assessed as reduction in bacterial growth incubated for 16 to 18 hrs by broth microdilution method; format: functional; settings: time 16-18 hrs
Staphylococcus aureus [6] = assay: Bactericidal activity against Staphylococcus aureus ATCC 29213 assessed as increase in dead bacterial cells at 2.5 times MIC after 30 mins by confocal laser scanning microscopy analysis; format: functional, organism-based
Staphylococcus aureus [7] = assay: Synergistic antibacterial activity against Staphylococcus aureus ATCC 29213 assessed as fractional inhibitory concentration incubated for 24 hrs in presence of rifampicin by checkerboard method; format: functional
Staphylococcus aureus [8] = assay: Antibacterial activity against methicillin/levoflaxacin/vancomycin/meropenem/gentamycin/spectinomycin/teicoplanin resistant Staphylococcus aureus VRS 12 assessed as reduction in bacterial growth incubated for 16 to 18 hrs by broth microdilution method; format: functional; settings: time 16-18 hrs
Staphylococcus aureus [9] = assay: microbe, parasite or virus in culture; settings: ATCC 29213
Description: Antibacterial activity against Staphylococcus aureus ATCC 29213 assessed as reduction in bacterial growth incubated for 16 to 18 hrs by broth microdilution method

Staphylococcus aureus [10] = assay: Synergistic antibacterial activity against Staphylococcus aureus ATCC 29213 assessed as reduction in bacterial growth incubated for 24 hrs in presence of meropenem by checkerboard method; format: functional
Staphylococcus aureus [11] = assay: Bactericidal activity against Staphylococcus aureus ATCC 29213 assessed as reduction in log10 CFU at 10 times MIC after 5 mins by time kill assay; format: functional
Staphylococcus aureus [12] = assay: Synergistic antibacterial activity against Staphylococcus aureus ATCC 29213 at 1 time MIC after 24 hrs in presence of gentamicin by time kill assay; format: functional
Klebsiella pneumoniae = assay: Antibacterial activity against Klebsiella pneumoniae BAA 1705 assessed as reduction in bacterial growth incubated for 16 to 18 hrs by broth microdilution method; format: functional; settings: time 16-18 hrs
Staphylococcus aureus [13] = assay: Antibiofilm activity against Staphylococcus aureus ATCC 29213 assessed as reduction in preformed bacterial biofilm mass at 1 time MIC incubated for 24 hrs by crystal violet staining based microtiter plate reader assay; format: functional; design: scale not given: the % may be the effect or the level left
Staphylococcus aureus [14] = assay: Bactericidal activity against Staphylococcus aureus ATCC 29213 assessed as inhibition of bacterial regrowth at 10 time MIC after 24 hrs by time kill assay; format: functional, organism-based
Staphylococcus aureus [15] = assay: Antibacterial activity against methicillin/levoflaxacin/meropenem resistant Staphylococcus aureus NRS 186 assessed as reduction in bacterial growth incubated for 16 to 18 hrs by broth microdilution method; format: functional; settings: time 16-18 hrs
Staphylococcus aureus [16] = assay: Post antibiotic effect against Staphylococcus aureus ATCC 29213 at 1 time MIC incubated for 1 hr followed by replacement with drug free medium and measured every 1 hr (reference value: 0 hr); format: functional
Staphylococcus aureus [17] = assay: Synergistic antibacterial activity against Staphylococcus aureus ATCC 29213 assessed as fractional inhibitory concentration incubated for 24 hrs in presence of ceftazidime by checkerboard method; format: functional
Staphylococcus aureus [18] = assay: Synergistic antibacterial activity against Staphylococcus aureus ATCC 29213 at 1 time MIC after 24 hrs in presence of linezolid by time kill assay; format: functional
Acinetobacter baumannii = assay: Antibacterial activity against Acinetobacter baumannii BAA 1605 assessed as reduction in bacterial growth incubated for 16 to 18 hrs by broth microdilution method; format: functional; settings: time 16-18 hrs
Enterococcus [19] = assay: Antibacterial activity against vancomycin/methicillin/levoflaxacin/minocycline resistant Enterococcus NR 31909 assessed as reduction in bacterial growth incubated for 16 to 18 hrs by broth microdilution method; format: functional; settings: time 16-18 hrs
Enterococcus [20] = assay: Antibacterial activity against Enterococcus NR 31903 assessed as reduction in bacterial growth incubated for 16 to 18 hrs by broth microdilution method; format: functional; settings: time 16-18 hrs
Staphylococcus aureus [21] = assay: Synergistic antibacterial activity against Staphylococcus aureus ATCC 29213 assessed as fractional inhibitory concentration incubated for 24 hrs in presence of daptomycin by checkerboard method; format: functional
Staphylococcus aureus [22] = assay: Bactericidal activity against Staphylococcus aureus ATCC 29213 assessed as reduction in log10 CFU at 1 time MIC after 1 hr by time kill assay; format: functional
Staphylococcus aureus [23] = assay: Synergistic antibacterial activity against Staphylococcus aureus ATCC 29213 assessed as reduction in bacterial growth incubated for 24 hrs in presence of daptomycin by checkerboard method; format: functional
Staphylococcus aureus [24] = assay: Bactericidal activity against Staphylococcus aureus ATCC 29213 assessed as reduction in log10 CFU at 10 time MIC after 1 hr by time kill assay; format: functional
Staphylococcus aureus [25] = assay: Antibacterial activity against gentamycin/linezolid/methicillin/trimeth/sulfa resistant Staphylococcus aureus NRS 119 assessed as reduction in bacterial growth incubated for 16 to 18 hrs by broth microdilution method; format: functional; settings: time 16-18 hrs
Staphylococcus aureus [26] = assay: Bactericidal activity against Staphylococcus aureus ATCC 29213 assessed as visible cell destruction at 2.5 times MIC after 30 mins by scanning electron microscopy analysis; format: functional, organism-based
[27] = Cytotoxicity against African green monkey Vero cells after 72 hrs by MTT assay; format: toxicity, cell-based; settings: chlorocebus sabaeus
Escherichia coli [28] = assay: Antibacterial activity against Escherichia coli ATCC 25922 assessed as reduction in bacterial growth incubated for 16 to 18 hrs by broth microdilution method; format: functional; settings: time 16-18 hrs
Staphylococcus aureus [29] = assay: Antibacterial activity against methicillin/meropenem/levoflaxacin resistant Staphylococcus aureus NRS 198 assessed as reduction in bacterial growth incubated for 16 to 18 hrs by broth microdilution method; format: functional; settings: time 16-18 hrs
Enterococcus [30] = assay: Antibacterial activity against vancomycin sensitive/methicillin resistant Enterococcus NR 31885 assessed as reduction in bacterial growth incubated for 16 to 18 hrs by broth microdilution method; format: functional; settings: time 16-18 hrs
Staphylococcus aureus [31] = assay: Antibacterial activity against chloramphenicol resistant Staphylococcus aureus NRS 129 assessed as reduction in bacterial growth incubated for 16 to 18 hrs by broth microdilution method; format: functional; settings: time 16-18 hrs
Staphylococcus aureus [32] = assay: Antibacterial activity against methicillin/levoflaxacin/meropenem/erythromycin resistant Staphylococcus aureus NRS 192 assessed as reduction in bacterial growth incubated for 16 to 18 hrs by broth microdilution method; format: functional; settings: time 16-18 hrs
Staphylococcus aureus [33] = assay: Antibacterial activity against methicillin/levoflaxacin/vancomycin/meropenem/gentamycin/spectinomycin/teicoplanin resistant Staphylococcus aureus VRS 1 assessed as reduction in bacterial growth incubated for 16 to 18 hrs by broth microdilution method; format: functional; settings: time 16-18 hrs
Staphylococcus aureus [34] = assay: Antibacterial activity against methicillin/levoflaxacin/vancomycin/meropenem/gentamycin/spectinomycin/teicoplanin resistant Staphylococcus aureus VRS 4 assessed as reduction in bacterial growth incubated for 16 to 18 hrs by broth microdilution method; format: functional; settings: time 16-18 hrs
Enterococcus [35] = assay: Antibacterial activity against vancomycin/methicillin/levoflaxacin/minocycline resistant Enterococcus NR 31903 assessed as reduction in bacterial growth incubated for 16 to 18 hrs by broth microdilution method; format: functional; settings: time 16-18 hrs
Staphylococcus aureus [36] = assay: Post antibiotic effect against Staphylococcus aureus ATCC 29213 at 10 times MIC incubated for 1 hr followed by replacement with drug free medium and measured every 1 hr (reference value: 0 hr); format: functional

COc1cc2oc(-c3ccc(O)cc3O)c(CC=C(C)C)c(=O)c2c(O)c1/C=C/C(C)C [ARTOCARPIN]
FIC (Staphylococcus aureus [1]): 0.25
MIC (Escherichia coli [2]): 8 µg/mL
MIC (Pseudomonas aeruginosa): > 128 µg/mL
Activity (Staphylococcus aureus [3]): 1.4 log10CFU/ml
MIC (Staphylococcus aureus [4]): 1 µg/mL
MIC (Staphylococcus aureus [5]): 4 µg/mL (≈ 9.16 µM)
Activity (Staphylococcus aureus [6]): Active
FIC (Staphylococcus aureus [7]): 0.5
MIC (Staphylococcus aureus [8]): 4 µg/mL (≈ 9.16 µM)
MIC (Staphylococcus aureus [9]): 2 µg/mL (≈ 4.58 µM)
MIC (Staphylococcus aureus [10]): 2 µg/mL
Activity (Staphylococcus aureus [11]): 2.07 log10CFU/ml
Activity (Staphylococcus aureus [12]): 100%
MIC (Klebsiella pneumoniae): > 128 µg/mL
Activity (Staphylococcus aureus [13]): 34%
Activity (Staphylococcus aureus [14]): Active
MIC (Staphylococcus aureus [15]): 4 µg/mL (≈ 9.16 µM)
PAE (Staphylococcus aureus [16]): 3 h
FIC (Staphylococcus aureus [17]): 0.5
Activity (Staphylococcus aureus [18]): 4 log10CFU/ml
MIC (Acinetobacter baumannii): > 128 µg/mL
MIC (Enterococcus [19]): 1 µg/mL (≈ 2.29 µM)
MIC (Enterococcus [20]): 2 µg/mL (≈ 4.58 µM)
FIC (Staphylococcus aureus [21]): 0.25
Activity (Staphylococcus aureus [22]): 3.6 log10CFU/ml
MIC (Staphylococcus aureus [23]): 1 µg/mL
Activity (Staphylococcus aureus [24]): 4.8 log10CFU/ml
MIC (Staphylococcus aureus [25]): 4 µg/mL (≈ 9.16 µM)
Activity (Staphylococcus aureus [26]): Active
CC50 at 72 h [27]: 80 µg/mL (≈ 183 µM)
MIC (Escherichia coli [28]): > 128 µg/mL
MIC (Staphylococcus aureus [29]): 2 µg/mL (≈ 4.58 µM)
MIC (Enterococcus [30]): 2 µg/mL (≈ 4.58 µM)
MIC (Staphylococcus aureus [31]): 4 µg/mL (≈ 9.16 µM)
MIC (Staphylococcus aureus [32]): 4 µg/mL (≈ 9.16 µM)
MIC (Staphylococcus aureus [33]): 4 µg/mL (≈ 9.16 µM)
MIC (Staphylococcus aureus [34]): 4 µg/mL (≈ 9.16 µM)
MIC (Enterococcus [35]): 2 µg/mL (≈ 4.58 µM)
PAE (Staphylococcus aureus [36]): 22 h
